Reference: ChEMBL document CHEMBL1148144, “Horiolide, a novel norditerpenoid from Indian ocean soft coral of the genus Sinularia” (J Nat Prod, 2002)
Active and inactive are the calls of the source.

Tests used:
Type in all cases: functional, organism-based
Escherichia coli = experiment: Antibacterial activity against Escherichia coli
Staphylococcus aureus = experiment: Antibacterial activity against Staphylococcus aureus
Bacillus subtilis = experiment: Antibacterial activity against Bacillus subtilis
Rhizomucor miehei = experiment: Antifungal activity against Mucor miehei
Chlorella vulgaris = experiment: Antialgal activity against Chlorella vulgaris
Chlorella sorokiniana = experiment: Antialgal activity against Chlorella sorokiniana
Chlorella salina = experiment: Antialgal activity against Chlorella salina

Measured: Activity

C=C(C)[C@@H]1CC(=O)[C@H]2[C@H](C1)[C@@H]1C(=O)O[C@H]3[C@@H]1CC(=O)[C@H]2[C@H]3C(C)=O
inactive: all assays above
